Marks after values point to notes of the source that are not given here.
Experiments:
[1] = MGO capture using derivatization with OPD (HPLC); conditions: PESE 2 mg/mL, PIC 2 mM, AMG 2 mM; MGO 2 mM; 37 °C, 1 h
Experimental: MGO scavenging was tested using a described procedure, with slight modifications. The quantification of MGO was based on derivatization with OPD, leading to the formation of the product 2-methylquinoxyline (2-MQ). MGO and OPD were dissolved in phosphate buffer (50 mM, pH 7.4) to a concentration of 2 mM and 4 mM, respectively. […] The reaction system was composed of 125 μL of the MGO solution, 125 μL of phosphate buffer (negative control), or PESE incubated at 37 °C for 1 h. After 250 μL of the OPD solution was added, the tubes were kept for 30 min for the derivatization reaction between MGO and OPD to complete. Then, the chromatographic analysis was performed. All solutions were previously filtered (microfilter pore diameter 0.45 μm). […] The linear gradient for elution was: starting at 5% of solvent B, 0–3 min, 5 to 50% B; 3–16 min, isocratic in 50% B; 16–17 min, 50–90% B; 17–19 min, isocratic in 90% B and 19–19.5 min, 90–5% B. The derivatization product, 2-methylquinoxyline (2-MQ), was detected at 315 nm, with a retention time of 10 min. The percentage of trapping efficiency of MGO was calculated using the following equation: % trapping MGO = [100 − (peak area after adding sample/peak area without adding sample) × 100].

[2] = test system: BSA/fructose + glucose fluorescent AGEs; assay: Inhibition of AGE formation, initial stage of glycation (BSA/fructose + glucose); format: biochemical, bovine; conditions: BSA/fructose + glucose model, 7 days, 37 °C
Experimental: The formation of AGEs was measured after incubation of a system containing protein and carbohydrates. This assay was based on previous methods. The reaction system was obtained by adding 300 µL of plant extract or of the pure compound (at different concentrations), 150 µL D-fructose (200 mM), 150 µL of D-glucose (200 mM), and 300 µL of bovine serum albumin (BSA, 3 mg/mL) to a test tube. All these solutions, except plant extract, were dissolved in 0.05 M potassium phosphate buffer (pH 7.4) containing NaCl (100 mM) and NaN3 (0.02% w/v). The plant extract was prepared in a buffer containing 60% ethanol. The mixture was incubated in the dark at 37 °C for 7 days with constant stirring. After the incubation, 200 µL of the reaction mixture was transferred to a 96-well black plate, and fluorescent AGEs were measured using a microplate reader (Infinite® 200 PRO, TECAN, Männedorf, Switzerland) at λex = 360 and λem = 440 nm. […]. Aminoguanidine (AMG), a known AGE formation inhibitor, was used as a standard. The reaction mixture without inhibitors was used as a positive control. Color interference from the sample was eliminated by a sample control (buffer and sample). The fluorescence readings for the experimental treatment were blanked against extract blanks to eliminate the baseline fluorescence of the sample. The percentage of the AGE inhibition and IC50 was calculated as described in Section 3.3.1.

[3] = test system: amyloid fibrils of glycated BSA (BSA/MGO); assay: Inhibition of amyloid fibril formation, ThT assay (BSA/MGO); format: biochemical, bovine; conditions: highest obtained, PESE 200, PIC 200, AMG 100 µg/mL
Experimental: (§1) The BSA-MGO assay was based on those described before, with some modifications. This experiment is based on the formation of fluorescent AGEs from the middle stage of protein glycation. MGO (1.5 mM) and BSA (3 mg/mL) were dissolved separately in 0.05 M phosphate buffer (pH 7.4) containing NaCl (100 mM) and NaN3 (0.02% w/v). Then, 300 μL of MGO was incubated with samples at different concentrations (dissolved in a buffer containing 60% ethanol) for an hour at 37 °C, in the dark, with constant stirring. After BSA (3 mg/mL) was added to the reaction mixture and incubation time was extended to 48 h at 37 °C in darkness. The rest of the procedure was the same as that for the BSA-glucose/fructose model that is described above. The percentage of the AGE inhibition and IC50 was calculated as described in Section 3.3.1.
The fibrillar state of modified BSA was determined with ThT as previously described. ThT is a probe that binds directly to amyloid fibrils to give a strong fluorescent signal and thus can be used to quantify β-amyloid due to protein glycation. Basically, 30 μL of glycated protein (approx. 1 mg/mL), obtained as described previously, was mixed with 100 μL ThT reagent (10 μM ThT in 100 mM phosphate buffer, pH 7.0), and fluorescence was collected at excitation/emission wavelengths of 450/490 nm in a microplate reader (Infinite® 200 PRO, TECAN, Männedorf, Switzerland). […]

[4] = test system: BSA/MGO fluorescent AGEs; assay: Inhibition of AGE formation, intermediate stage of glycation (BSA/MGO); format: biochemical, bovine; conditions: BSA/MGO model
Experimental: as §1

[5] = HOCl scavenging activity
Experimental: Briefly, a freshly prepared HOCl solution, by adjusting the pH of a 1% solution of NaOCl to 6.2 with dropwise addition of diluted H2SO4, was diluted to 30 µM, using 100 mM phosphate buffer pH 7.4. […] QCT was used as means of comparison. Fluorescence assays were performed in a microplate reader (Infinite® 200 PRO, TECAN, Männedorf, Switzerland), at 37 °C, at wavelengths of 505 ± 10 nm and 530 ± 10 nm, for excitation and emission, respectively. The results were expressed as IC50 (μg/mL) of extract solution.

[6] = DPPH radical scavenging assay
Experimental: After incubation in the dark for 30 min, the absorbance was read at 516 nm, using a UV–Vis spectrophotometer (Agilent Technologies, Santa Clara, CA, USA). Results were expressed as the half-maximal inhibitory concentration (IC50) in μg/mL.

[7] = parameters: method as in PMID 31683151; conditions: compound 5 mM, MGO 5 mM; cited from earlier work
[8] = Superoxide anion radical scavenging activity
Experimental: The potential of the samples to scavenger superoxide anion radicals was determined, with minor modifications. […] Phosphate buffer (19 mM, pH 7.4) was used to dissolve NADH, NBT, and PMS. QCT was used as means of comparison. The experiment was conducted at 37 °C in a microplate reader (Infinite® 200 PRO, TECAN, Männedorf, Switzerland), and the absorbance was measured at 560 nm. The results were expressed as IC50 of extract solution in μg/mL.

Compound	MGO capture percentage [7]	also measured
N=C(N)NN [AMG, Aminoguanidine]		MGO trapping [1]: 99.6%; Antiglycation IC50, Fructose + Glucose [2]: 25.5 ± 5.0 ^c μg/mL; Inhibition of Amyloid Fibrils (%), MGO [3]: 30.3 ± 4.4 ^c %; Antiglycation IC50, MGO [4]: 50.4 ± 1.8 ^c μg/mL
O=c1c(O)c(-c2ccc(O)c(O)c2)oc2cc(O)cc(O)c12 [QCT, quercetin]	21.4%	HOCl IC50 [5]: 1.9 ± 0.3 µg/mL; DPPH• IC50 ([6]; 30 min): 4.8 ± 1.0 µg/mL; IC50 ([6]; data in parenthesis are in μM): 15.9 µM; O2•− IC50 [8]: 8.8 ± 0.3 µg/mL; IC50 ([8]; data in parenthesis are in μM, read-out: O2•− IC50 (in parenthesis) (converted)): 29.2 µM
O=c1cc(-c2ccc(O)cc2)oc2cc(O)cc(O)c12 [apigenin]	36.5%	
COc1cc(-c2cc(=O)c3c(O)cc(O)cc3o2)ccc1O [chrysoeriol]	41.8%	
O=c1c(-c2ccc(O)cc2)coc2cc(O)cc(O)c12 [genistein]	43.4%	
O=c1c(O)c(-c2ccc(O)cc2)oc2cc(O)cc(O)c12 [kaempferol]	58.9%	
O=c1cc(-c2ccc(O)c(O)c2)oc2cc(O)cc(O)c12 [luteolin]	40.7%	
CC1OC(OCC2OC(Oc3c(-c4ccc(O)cc4)oc4cc(OC5OC(C)C(O)C(O)C5O)cc(O)c4c3=O)C(O)C(O)C2O)C(O)C(O)C1O (stereo not drawn) [robinin]	54.4%	
C[C@@H]1O[C@@H](OC[C@H]2O[C@@H](Oc3c(-c4ccc(O)c(O)c4)oc4cc(O)cc(O)c4c3=O)[C@H](O)[C@@H](O)[C@@H]2O)[C@H](O)[C@H](O)[C@H]1O [rutin]	49.3%	
procyanidins	46.3%	
